# According to patent US20220330549A1, “USE OF N-BENZYLBENZAMIDE-BASED COMPOUND AS HERBICIDE” (Northwest A&F University, priority 2020, published 2022):
# How the values were obtained:
# Type in all cases: in vivo
# Barnyard grass [1] = assay: Herbicidal activity test for indoor pre-emergence soil treatment; set-up: key: level 1-9; higher = more weed remaining vs blank control; conditions: 150 g a.i./ha, visual inspection 21 days after treatment
# Method in brief: (§1)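 Pre-emergence soil spray per NY/T 1155.3-2006: weed seeds sown in moistened neutral sandy loam (organic content ≤2%), covered with 0.5–2.0 cm soil, then sprayed 24 h later with a water-diluted 10% emulsifiable concentrate at 150 g(a.i.)/ha. Visual rating after 21 days on a 1–9 scale.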
# Piemarker [2] = assay: as above; set-up: key: level 1-9; higher = more weed remaining vs blank control; conditions: 150 g a.i./ha, visual inspection 21 days after treatment
# Method in brief: as §1
# green bristlegrass [3] = assay: as above; set-up: key: level 1-9; higher = more weed remaining vs blank control; conditions: 150 g a.i./ha, visual inspection 21 days after treatment
# Method in brief: as §1
# Amaranthus retroflexus [4] = assay: as above; set-up: key: 1-9 levels; higher = more weed remaining vs blank control; conditions: 150 g a.i./ha, visual inspection 21 days after treatment
# Method in brief: as §1
# Digitaria sanguinalis [5] = assay: as above; set-up: key: 1-9 levels; higher = more weed remaining vs blank control; conditions: 150 g a.i./ha, visual inspection 21 days after treatment
# Method in brief: as §1
# Humulus scandens [6] = assay: as above; conditions: 150 g a.i./ha, visual inspection 21 days after treatment
# Method in brief: as §1
# Amaranthus retroflexus [7] = assay: Herbicidal activity test for indoor post-emergence spraying on stems and leaves; set-up: key: grade level by weed remaining vs blank control, e.g. 5 = 10.1-15%; conditions: 150 g a.i./ha, visual inspection 21 days after treatment
# Method in brief: (§2)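 Run per NY/T 1155.4-2006: weeds sown, grown in greenhouse, then sprayed post-emergence on stems and leaves. Effect scored visually 21 days after treatment on a graded level scale relative to weed in the blank control area.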
# Barnyard grass [8] = assay: as above; set-up: key: grade level by weed remaining vs blank control, e.g. 5 = 10.1-15%; conditions: 150 g a.i./ha, visual inspection 21 days after treatment
# Method in brief: as §2
# Digitaria sanguinalis [9] = assay: as above; set-up: key: grade level by weed remaining vs blank control, e.g. 5 = 10.1-15%; conditions: 150 g a.i./ha, visual inspection 21 days after treatment
# Method in brief: as §2
# Humulus scandens [10] = assay: as above; set-up: key: grade level by weed remaining vs blank control, e.g. 5 = 10.1-15%; conditions: 150 g a.i./ha, visual inspection 21 days after treatment
# Method in brief: as §2
# Piemarker [11] = assay: as above; set-up: key: grade level by weed remaining vs blank control, e.g. 5 = 10.1-15%; conditions: 150 g a.i./ha, visual inspection 21 days after treatment
# Method in brief: as §2
# green bristlegrass [12] = assay: as above; set-up: key: grade level by weed remaining vs blank control, e.g. 5 = 10.1-15%; conditions: 150 g a.i./ha, visual inspection 21 days after treatment
# Method in brief: as §2
# Broadleaf weed = assay: Post-emergence herbicidal activity test in a paddy field; set-up: key: level scale; higher level = more weed left vs blank control; conditions: 150 g a.i./ha (penoxsulam control 250 g(a.i.)/h)
# Method in brief: (§3)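 Efficacy was visually estimated 15 and 30 days after spraying, grading weed coverage relative to an untreated neighbouring plot (level 2 = 0 to 2.5%, level 9 = 67.6 to 100%). Treatments were 150 g(a.i.)/ha from 10% emulsifiable concentrates applied at the 4-5 leaf rice stage, four repeats of 50 m^2 each.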
# Cyperaceae = assay: as above; set-up: key: level scale; higher level = more weed left vs blank control; conditions: 150 g a.i./ha (penoxsulam control 250 g(a.i.)/h)
# Method in brief: as §3
# Gramineae = assay: as above; set-up: key: level scale; higher level = more weed left vs blank control; conditions: 150 g a.i./ha (penoxsulam control 250 g(a.i.)/h)
# Method in brief: as §3
# Acalypha australis = assay: Field test for weed control in a corn field
# Method in brief: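 Post-emergence field trial in a corn field following GB/T 17980.42-2000. Test compounds were formulated as 10% emulsifiable concentrates, diluted in water, and sprayed at 150 g(a.i.)/ha when corn had 2 to 5 leaves, with 4 replicates on 20 m^2 plots. Mesotrione 25% oil dispersion served as the control agent. Weed control was scored on a 1-9 scale.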
# Amaranthus retroflexus [13] = assay: Field test for weed control in a corn field
# Method in brief: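 Field efficacy trial in a corn field following GB/T 17980.42-2000. Test compounds were formulated as 10% emulsifiable concentrates, diluted in water and sprayed post-emergence when corn had 2 to 5 leaves. Each treatment covered 20 m^2 with 4 replicates. A 25% mesotrione oil dispersion served as control. Damage to Amaranthus retroflexus was rated on a 1-9 scale against untreated blank plots.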
# Barnyard grass [14] = assay: Field test for weed control in a corn field
# Method in brief: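 Corn-field efficacy trial following GB/T 17980.42-2000. Test compounds were formulated as 10% emulsifiable concentrates, diluted in water and sprayed post-emergence at 150 g(a.i.)/ha when corn had 2 to 5 leaves. Each treatment was replicated 4 times on 20 m^2 plots. Barnyard grass control was rated on a 1-9 damage scale.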
# Chenopodium album = assay: Field test for weed control in a corn field
# Method in brief: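 A corn-field efficacy trial following GB/T 17980.42-2000 tested post-emergence control of Chenopodium album. Test compounds formulated as 10% emulsifiable concentrates were diluted in water and sprayed at 150 g(a.i.)/ha when the corn had 2 leaves to 5 leaves, on 20 m^2 plots with 4 replicates. Herbicidal activity was rated on a 1-9 scale by damage symptoms and severity.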
# Convolvulus arvensis = assay: Field test for weed control in a corn field
# Method in brief: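 Field trial of weed control against Convolvulus arvensis in corn, run following GB/T 17980.42-2000. Test agents were formulated as 10% emulsifiable concentrates and sprayed in water at 150 g(a.i.)/ha when corn plants had 2 to 5 leaves. Each treatment was replicated 4 times on 20 m^2 plots, and 25% mesotrione oil dispersion served as the control agent.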
# Digitaria sanguinalis [15] = assay: Field test for weed control in a corn field
# Method in brief: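 Field trial in a corn field following GB/T 17980.42-2000. Test compounds were formulated as 10% emulsifiable concentrates, diluted in water and sprayed post-emergence at 150 g(a.i.)/ha when corn had 2 to 5 leaves, with 4 replicates on 20 m^2 plots. Control of Digitaria sanguinalis was scored on a 1-9 scale based on weed damage relative to the untreated blank area.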
# Portulaca oleracea = assay: Field test for weed control in a corn field
# Method in brief: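 Field efficacy trial in corn following GB/T 17980.42-2000. Test compounds were prepared as 10% emulsifiable concentrates, diluted in water, and sprayed at 150 g(a.i.)/ha when corn had 2 to 5 leaves after sowing. Plots were 20 m^2 with 4 replicates per treatment. Herbicidal activity was scored on a 1-9 scale from weed damage symptoms and severity.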
# Solanum nigrum = assay: Field test for weed control in a corn field
# Method in brief: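 Post-emergence weed control was tested in a corn field following GB/T 17980.42-2000. Compounds were made into 10% emulsifiable concentrates, diluted in water and sprayed at 150 g(a.i.)/ha when corn had 2 to 5 leaves after sowing, in 20 m^2 plots with 4 replicates. Effects on Solanum nigrum were graded on a 1-9 scale relative to the blank control area.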
# goosegrass = assay: Field test for weed control in a corn field
# Method in brief: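 Weed control efficacy against goosegrass was tested in a corn field following GB/T 17980.42-2000. Compounds formulated as 10% emulsifiable concentrates were diluted in water and sprayed post-emergence at 150 g(a.i.)/ha when corn had 2 to 5 leaves, with 4 replicates of 20 m^2 plots. Herbicidal activity was rated on a 1-9 scale by damage symptoms and severity.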
# green bristlegrass [16] = assay: Field test for weed control in a corn field
# Method in brief: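 Post-emergence weed control was tested in a corn field following GB/T 17980.42-2000. When the corn had 2 leaves to 5 leaves after sowing, 10% emulsifiable concentrates diluted in water were sprayed at 150 g(a.i.)/ha on 20 m^2 plots, four replicates per treatment. Effects on green bristlegrass were scored on a 1-9 damage scale relative to the blank control area.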
# nutgrass flatsedge = assay: Field test for weed control in a corn field
# Method in brief: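 A corn field efficacy trial following GB/T 17980.42-2000 assessed post-emergence control of nutgrass flatsedge. Test compounds were formulated as 10% emulsifiable concentrates, diluted in water, and sprayed at 150 g(a.i.)/ha when the corn had 2 to 5 leaves. Each treatment had 4 replicates on 20 m^2 plots. Herbicidal activity was graded on a 1-9 scale by damage symptoms and severity.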
# [17] = 150 g(a.i.)/ha, 21 days after treatments
# [18] = 150 g a.i./ha, 30 days after treatment
smiles,measurement,setting,value
COc1ccccc1C(=O)NCc1ccc(F)cc1 [Compound A02],Herbicidal Activity Barnyard grass,Barnyard grass [1],1
same,Herbicidal Activity Piemarker,Piemarker [2],2 (equivalent to 0 to 2.5% of the weed in the blank control area)
same,Herbicidal Activity Green bristlegrass,green bristlegrass [3],2 (equivalent to 0 to 2.5% of the weed in the blank control area)
same,Herbicidal Activity Amaranthus retroflexus,Amaranthus retroflexus [4],3 (equivalent to 2.6 to 5% of the weed in the blank control area)
same,Herbicidal Activity Digitaria sanguinalis,Digitaria sanguinalis [5],1
same,Herbicidal Activity Humulus scandens,Humulus scandens [6],4 (equivalent to 5.1 to 10% of the weed in the blank control area)
same,Herbicidal Activity Amaranthus retroflexus,Amaranthus retroflexus [7],1
same,Herbicidal Activity Barnyard grass,Barnyard grass [8],1
same,Herbicidal Activity Digitaria sanguinalis,Digitaria sanguinalis [9],1
same,Herbicidal Activity Humulus scandens,Humulus scandens [10],1
same,Herbicidal Activity Piemarker,Piemarker [11],1
same,Herbicidal Activity Green bristlegrass,green bristlegrass [12],2 (equivalent to 0 to 2.5% of the weed in the blank control area)
same,Herbicidal activity 15 days after treatment Broadleaf weed,Broadleaf weed; 15 days after treatment,1
same,Herbicidal activity 30 days after treatment Broadleaf weed,Broadleaf weed; 30 days after treatment,1
same,Herbicidal activity 15 days after treatment Cyperaceae,Cyperaceae; 15 days after treatment,1
same,Herbicidal activity 30 days after treatment Cyperaceae,Cyperaceae; 30 days after treatment,1
same,Herbicidal activity 15 days after treatment Gramineae,Gramineae; 15 days after treatment,1
same,Herbicidal activity 30 days after treatment Gramineae,Gramineae; 30 days after treatment,1
same,"Post-emergence weed control effect, Acalypha australis","Acalypha australis; 150 g a.i./ha, after treatment",1
same,controlling effect on Acalypha australis,Acalypha australis; [17],1
same,"Post-emergence weed control effect, Amaranthus retroflexus",Amaranthus retroflexus [13]; [18],1
same,controlling effect on Amaranthus retroflexus,Amaranthus retroflexus [13]; [17],1
same,"Post-emergence weed control effect, Barnyard grass",Barnyard grass [14]; [18],1
same,controlling effect on barnyard grass,Barnyard grass [14]; [17],1
same,"Post-emergence weed control effect, Chenopodium album","Chenopodium album; 150 g a.i./ha, after treatment",1
same,controlling effect on Chenopodium album,Chenopodium album; [17],1
same,"Post-emergence weed control effect, Convolvulus arvensis","Convolvulus arvensis; 150 g a.i./ha, after treatment",1
same,controlling effect on Convolvulus arvensis,Convolvulus arvensis; [17],1
same,"Post-emergence weed control effect, Digitaria sanguinalis","Digitaria sanguinalis [15]; 150 g a.i./ha, after treatment",1
same,controlling effect on Digitaria sanguinalis,Digitaria sanguinalis [15]; [17],1
same,"Post-emergence weed control effect, Portulaca oleracea","Portulaca oleracea; 150 g a.i./ha, after treatment",1
same,controlling effect on Portulaca oleracea,Portulaca oleracea; [17],1
same,"Post-emergence weed control effect, Solanum nigrum",Solanum nigrum; [18],1
same,controlling effect on Solanum nigrum,Solanum nigrum; [17],1
same,"Post-emergence weed control effect, Goose grass","goosegrass; 150 g a.i./ha, after treatment",1
same,controlling effect on goosegrass,goosegrass; [17],1
same,"Post-emergence weed control effect, Green bristlegrass","green bristlegrass [16]; 150 g a.i./ha, after treatment",1
same,controlling effect on green bristlegrass,green bristlegrass [16]; [17],1
same,"Post-emergence weed control effect, Nutgrass flatsedge","nutgrass flatsedge; 150 g a.i./ha, after treatment",1
same,controlling effect on nutgrass flatsedge,nutgrass flatsedge; [17],1
